Data on four compounds can be found in paper PMC3728333, “Development of an Epidermal Growth Factor Derivative with EGFR Blocking Activity” (PLoS ONE, 2013).

The test system of one assay is MCF-7 cells. Description: Cell proliferation (MTT), MCF-7. The class given is cell-based, human. The following applies: MCF-7, 20 and 150 nM, 72 h (3 days), medium without FBS, vs untreated. On the procedure:
(§1) The optimal cell seeding concentration was previously established for both cell types, as described in the supporting information (Fig S1), in order to maintain the cells in an exponential growth phase along the experiment. The cells were allowed to attach and grow for 72 h in culture medium, then the cells were washed and medium without FBS was added to the cells for 24 h. […] The treatments were removed, and the cells were washed with PBS and incubated for 3 h with 100 μl of fresh culture medium together with 10 μl of MTT (3-(4,5-dimethylthiazol-2-yl)-2,5-diphenyltetrazolium bromide) (Sigma-Aldrich, St. Louis, MO, USA). Medium was discarded and dimethyl sulfoxide (DMSO) (Sigma-Aldrich, St. Louis, MO, USA) was added to each well to dissolve the purple formazan crystals. Plates were agitated at room temperature for 10 min and the absorbance of each well was determined with an absorbance microplate reader (ELx800, BioTek, Winooski, VT, USA) at a wavelength of 570 nm. Three replicates were used for each treatment. The cell viability was determined as a percentage of the untreated control cells, by dividing the mean absorbance of each treatment by the mean absorbance of the untreated cells.

A further assay relates to Caco-2 cells. Description: Cell proliferation (MTT), Caco-2. In kind it is cell-based, human. The following applies: Caco-2, any concentration tested (10, 20 and 150 nM), 96 h (4 days), medium without FBS, vs untreated. On the procedure: as §1
Assay [1] relates to EGFR. The following applies: ref [39], [40]; cited from earlier work. From the text:
It is known that activated EGFR traffics from the plasma membrane to the cytoplasm through endocytic vesicles. Then, internalized EGFR can be eventually degraded in lysosomes, or recycled to the plasma membrane. Moreover, several reports have identified additional intracellular destinations for the internalized receptor, including ...

Assay [2] has as its system EGFR. To be noted: ref [11], [12], cited from earlier work. From the text:
(§2) Our group has previously described that the Potato Carboxypeptidase Inhibitor (PCI) is an antagonist of human EGF. PCI is a 39-residue protein folded into a 27-residue globular core stabilized by three disulfide bonds that adopts the same conformation as EGF, the T-Knot scaffold. This similar structure probably accounts for the antagonistic activity.

For a further assay, the system named is human cancer cell lines. To be noted: several human cancer cell lines; ref [11], [12]; cited from earlier work.
Source text: as §2

Assay [3] concerns EGFR. The following applies: ref [30]; cited from earlier work. An excerpt: The binding of EGF through the three interaction sites of EGFR shifts the equilibrium between the two distinct EGFR conformations to the untethered one, enabling the dimerization arm in domain II to interact with an identical dimerization arm of another receptor to form the dimer, [14].

For human Epidermal Growth Factor [hEGF], the “cell proliferation (in words)” value with MCF-7 cells is reported as “proliferative effect”; in the assay on Caco-2 cells it was “moderated but significant proliferative effect”. Also, the “stability of binding to EGFR at pH of endosomes” value in the assay on EGFR [1] is recorded as “relatively more stable at the pH of endosomes”.

In the case of “Potato Carboxypeptidase Inhibitor (QQHADPICNKPCKTHDDCSGAWFCQACWNSARTCGPYVG; UniProt P01075 1-39, looked up) [PCI, 39-residue protein folded into a 27-residue globular core stabilized by three disulfide bonds]”, in the assay on EGFR [2] (earlier work), the “affinity for EGFR (in words)” value is “very low”. Besides, in the assay with EGFR [2], the EGFR activation result was “inhibited EGFR activation”, the EGFR down regulation result is given as “induced the down regulation of the receptor”, the “competition with EGF for binding to EGFR” value was “competed with EGF for binding to EGFR” and the “effective concentration compared to EGFt/hEGF (in words)” value is “one order of magnitude higher (μM)”. In addition, the “anti-proliferative activity in vitro” value with human cancer cell lines is “showed anti-proliferative activity in vitro in several human cancer cell lines”.

TGF-α: EGFR native ligand: the “stability of binding to EGFR at pH of endosomes” value in the assay with EGFR [1] is “rapidly dissociates from the receptor when exposed to the low pH of endosomes”.

For `Cc1ccc(C(=O)Nc2ccc(S(=O)(=O)O)c3cc(S(=O)(=O)O)cc(S(=O)(=O)O)c23)cc1NC(=O)c1cccc(NC(=O)Nc2cccc(C(=O)Nc3cc(C(=O)Nc4ccc(S(=O)(=O)O)c5cc(S(=O)(=O)O)cc(S(=O)(=O)O)c45)ccc3C)c2)c1` [suramin], the “interference with hEGF-EGFR interaction” value in the assay with EGFR [3] is “prevents hEGF from interacting with EGFR at site 3”.
